Results as given in patent US20240287089A1, “Preparation and Uses of 7-Azaindenoisoquinolines” (Purdue Research Foundation, priority 0001, published 2024).

Columns and labels:
[1] = Stability in blood plasma; settings: mouse plasma, 37° C.
Description: Analysis of Plasma Protein Binding and Stability in Human and Mouse Blood Plasma by Equilibrium Dialysis. Frozen plasma (stored at −80° C.) was thawed immediately in a 37° C. water bath. The working solutions of test compound and control compound were prepared in DMSO at 200 μM concentration, and the working solutions were spiked into plasma. The final concentration of compound was 1 μM. The final concentration of DMSO was 0.5%. Ketoconazole was used as positive control in the assay. The dialysis membranes were soaked in ultrapure water for 60 min to separate strips, then in 20% ethanol for 20 min, and then finally in dialysis buffer for 20 min. For equilibrium dialysis, each cell contained plasma sample (150 μL) and was dialyzed against an equal volume of dialysis buffer (PBS). The assay was performed in duplicate. The dialysis plate was sealed and incubated at 37° C. with 5% CO2 at 100 rpm for 6 h. At the end of incubation, samples (50 μL) from both buffer and plasma chambers were transferred to wells of a 96-well plate. Plasma (50 μL) was added to each buffer sample and an equal volume of PBS was added to the collected plasma sample. […] The concentrations of test compounds in the buffer and plasma chambers were determined from peak area ratios.

[2] = Plasma protein binding by equilibrium dialysis; settings: human plasma
Description: (§1) Analysis of Plasma Protein Binding and Stability in Human and Mouse Blood Plasma by Equilibrium Dialysis. Frozen plasma (stored at −80° C.) was thawed immediately in a 37° C. water bath. The working solutions of test compound and control compound were prepared in DMSO at 200 μM concentration, and the working solutions were spiked into plasma. The final concentration of compound was 1 μM. The final concentration of DMSO was 0.5%. Ketoconazole was used as positive control in the assay. The dialysis membranes were soaked in ultrapure water for 60 min to separate strips, then in 20% ethanol for 20 min, and then finally in dialysis buffer for 20 min. For equilibrium dialysis, each cell contained plasma sample (150 μL) and was dialyzed against an equal volume of dialysis buffer (PBS). The assay was performed in duplicate. The dialysis plate was sealed and incubated at 37° C. with 5% CO2 at 100 rpm for 6 h. At the end of incubation, samples (50 μL) from both buffer and plasma chambers were transferred to wells of a 96-well plate. Plasma (50 μL) was added to each buffer sample and an equal volume of PBS was added to the collected plasma sample. Cold acetonitrile (400 μL) containing internal standards (IS, 100 nM alprazolam, 200 nM labetalol, 200 nM imipramine and 2 μM ketoprofen) was added to precipitate protein and release compounds. Samples were vortexed for 2 min and centrifuged for 30 min at 3,220 g. An aliquot (100 μL) of the supernatant was diluted with ultra-pure H2O (100 μL), and the mixture was used for LC-MS/MS analysis. For stability determination in plasma, a spiked plasma sample (50 μL) was transferred to a new plate and incubated at 37° C., 5% CO2 for 0 and 6 h. At designated time points, PBS (50 μL) was added and mixed thoroughly, followed by the addition of room temperature quench solution [400 μL of acetonitrile containing internal standards (IS, 100 nM alprazolam, 200 nM labetalol, 200 nM imipramine and 2 μM ketoprofen)] to precipitate protein and release compounds. Samples were vortexed for 2 min and centrifuged for 30 min at 3,220 g. An aliquot (400 μL) of the supernatant was diluted by ultra-pure H2O, and the mixture was used for LC-MS/MS analysis. The concentrations of test compounds in the buffer and plasma chambers were determined from peak area ratios.

[3] = Plasma protein binding by equilibrium dialysis; settings: mouse plasma
Description: as §1

[4] = Stability in blood plasma; settings: human plasma, 37° C.
Description: as §1

With `CC(=O)N1CCN(c2ccc(OCC3COC(Cn4ccnc4)(c4ccc(Cl)cc4Cl)O3)cc2)CC1` (stereo not drawn) [Ketoconazole] as the molecule, how does the “% Stability at 6 hrs” value [1] read?
The value was 88.82%.

What about the “% Recovery” value [2] of the same molecule?
The value was 107.45%.

What about the “% Bound” value ([2]; 1 μM, 6 h dialysis) of the same molecule?
Its value is 98.01%.

And the “% Recovery” value [3]?
Its value is 93.23%.

What about the “% Bound” value ([3]; 1 μM, 6 h dialysis) of the same molecule?
The value was 99.26%.

What about the “% Stability at 6 hrs” value [4] of the same molecule?
Its value is 104.96%.
